Where two headings read alike, the source gives them in different places. Where a SMILES comes first, the peptide text is derived from it. Bridges are numbered along the chain shown (N, C = ends). [ ]: non-standard residue; d: D form. The star is where a group is joined. hPhe(3-Cl-4-CF3) = N[C@@H](CCc1ccc(C(F)(F)F)c(Cl)c1)C(=O)O; NPrPhe(4-CF3) = CCCN[C@@H](Cc1ccc(C(F)(F)F)cc1)C(=O)O; NEtPhe(4-Me) = CCN[C@@H](Cc1ccc(C)cc1)C(=O)O; NMePhe(4-F) = CN[C@@H](Cc1ccc(F)cc1)C(=O)O; NMeGly(cPent) = CN[C@H](C(=O)O)C1CCCC1; Pro(4,4-F2) = O=C(O)[C@@H]1CC(F)(F)CN1; NMeF = CN[C@@H](Cc1ccccc1)C(=O)O; NMeD = CN[C@@H](CC(=O)O)C(=O)O; NMeL = CN[C@@H](CC(C)C)C(=O)O; Morpholide = C1CN(*)CCO1; NMeA = CN[C@@H](C)C(=O)O; Ac5c = NC1(C(=O)O)CCCC1; Aze = O=C(O)[C@@H]1CCN1; Ac4c = NC1(C(=O)O)CCC1; NEtG = CCNCC(=O)O; Sar = CNCC(=O)O
What was measured:
[1] = molecular target: GDP-bound KRAS wild-type protein (Homo sapiens, UniProt P01116); experiment: Binding to KRAS by surface plasmon resonance (SPR), Single Cycle Kinetics; conditions: GDP-bound KRAS wild-type protein, read-out: KRAS KD
[2] = molecular target: GDP-bound NRAS wild-type protein (Homo sapiens, UniProt P01111); experiment: Binding to NRAS by surface plasmon resonance (SPR), Single Cycle Kinetics; conditions: for NRAS/KRAS (ratio of KD value for NRAS to KD value for KRAS) / NRAS/KRAS (ratio of KD value with respect to NRAS to KD value with respect to KRAS): SPR, GDP-bound NRAS wild-type protein vs GDP-bound KRAS wild-type protein
[3] = molecular target: GDP-bound HRAS wild-type protein (Homo sapiens, UniProt P01112); experiment: Binding to HRAS by surface plasmon resonance (SPR), Single Cycle Kinetics; conditions: for HRAS/KRAS (ratio of KD value for HRAS to KD value for KRAS) / HRAS/KRAS (ratio of KD value with respect to HRAS to KD value with respect to KRAS): SPR, GDP-bound HRAS wild-type protein vs GDP-bound KRAS wild-type protein
[4] = SPR Single Cycle Kinetics, 1:1 binding model

GDP-bound KRAS wild-type protein, sequence (P01116 whole entry): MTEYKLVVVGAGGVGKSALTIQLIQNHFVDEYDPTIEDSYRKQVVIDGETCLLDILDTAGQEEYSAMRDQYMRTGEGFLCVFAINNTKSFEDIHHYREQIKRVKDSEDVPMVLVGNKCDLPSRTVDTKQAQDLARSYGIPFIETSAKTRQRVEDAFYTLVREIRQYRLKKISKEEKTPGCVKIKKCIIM
GDP-bound HRAS wild-type protein, sequence (P01112 whole entry): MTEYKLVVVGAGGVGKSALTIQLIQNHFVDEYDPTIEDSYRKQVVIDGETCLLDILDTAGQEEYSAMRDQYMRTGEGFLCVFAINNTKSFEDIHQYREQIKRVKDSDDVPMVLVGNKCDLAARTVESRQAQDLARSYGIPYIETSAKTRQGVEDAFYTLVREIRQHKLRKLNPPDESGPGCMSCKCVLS
GDP-bound NRAS wild-type protein, sequence (P01111 whole entry): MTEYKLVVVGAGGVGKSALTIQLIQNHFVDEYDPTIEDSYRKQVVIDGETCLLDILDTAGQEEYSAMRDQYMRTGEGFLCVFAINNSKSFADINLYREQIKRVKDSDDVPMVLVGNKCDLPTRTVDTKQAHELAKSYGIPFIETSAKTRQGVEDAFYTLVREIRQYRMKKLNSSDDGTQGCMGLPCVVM

Structure (SMILES)	Kd [1, 4] [pM]	NRAS/KRAS (ratio of KD value for NRAS to KD value for KRAS) [2]	HRAS/KRAS (ratio of KD value for HRAS to KD value for KRAS) [3]	NRAS/KRAS (ratio of KD value with respect to NRAS to KD value with respect to KRAS) [2]	HRAS/KRAS (ratio of KD value with respect to HRAS to KD value with respect to KRAS) [3]	Kd ([1]; SPR, Single Cycle Kinetics) [pM]	NRAS/KRAS (ratio of KD value with respect to GDP-bound NRAS wild-type protein to KD value with respect to KRAS) ([2]; SPR KD ratio NRAS/KRAS, class symbols)	HRAS/KRAS (ratio of KD value with respect to GDP-bound HRAS wild-type protein to KD value with respect to KRAS) ([3]; SPR KD ratio HRAS/KRAS, class symbols)
CCCN1C(=O)CN(C)C(=O)CN(C)C(=O)[C@H]([C@@H](C)CC)NC(=O)[C@H](CC(C)C)N(C)C(=O)C[C@@H](C(=O)N(C)C)NC(=O)[C@H](C2CCCC2)N(C)C(=O)C2(CCCC2)NC(=O)[C@@H]2CCCN2C(=O)[C@H](CCc2ccc(C(F)(F)F)c(Cl)c2)NC(=O)CN(C)C(=O)[C@@H]1Cc1ccc(C(F)(F)F)cc1 [PP0355] ([NMeL]I[Sar][Sar][NPrPhe(4-CF3)][Sar][hPhe(3-Cl-4-CF3)]P[Ac5c][NMeGly(cPent)]D-NMe2; lactam N-11)	330	B (a compound having 3 or more and less than 10 is denoted as B)	B (a compound having 3 or more and less than 10 is denoted as B)					
CC[C@H](C)[C@@H]1NC(=O)[C@H](CC(C)C)N(C)C(=O)C[C@@H](C(=O)N2CCOCC2)N(C)C(=O)[C@H](C2CCCC2)N(C)C(=O)C2(CCCC2)NC(=O)[C@@H]2CCCN2C(=O)[C@H](CCc2ccc(C(F)(F)F)c(Cl)c2)NC(=O)CN(C)C(=O)[C@H](Cc2ccc(C)cc2)N(CC)C(=O)CN(CC)C(=O)CN(C)C1=O [PP0027] ([NMeL]I[Sar][NEtG][NEtPhe(4-Me)][Sar][hPhe(3-Cl-4-CF3)]P[Ac5c][NMeGly(cPent)][NMeD]-Morpholide; lactam N-11)	800	C (A compound having a KD ratio of 0.1 or more and less than 3 is denoted as C)	C (A compound having a KD ratio of 0.1 or more and less than 3 is denoted as C)					
CC[C@H](C)[C@@H]1NC(=O)[C@H](CC(C)C)N(C)C(=O)C[C@@H](C(=O)N2CCOCC2)N(C)C(=O)[C@H](C2CCCC2)N(C)C(=O)C2(CCCC2)NC(=O)[C@@H]2CCCN2C(=O)[C@H](CCc2ccc(C(F)(F)F)c(Cl)c2)NC(=O)CN(C)C(=O)[C@H](Cc2ccccc2)N(C)C(=O)[C@@H]2CCN2C(=O)[C@H](C)N(C)C1=O [PP0011] ([NMeL]I[NMeA][Aze][NMeF][Sar][hPhe(3-Cl-4-CF3)]P[Ac5c][NMeGly(cPent)][NMeD]-Morpholide; lactam N-11)	300	C (A compound having a KD ratio of 0.1 or more and less than 3 is denoted as C)	C (A compound having a KD ratio of 0.1 or more and less than 3 is denoted as C)					
CC[C@H](C)[C@@H]1NC(=O)[C@H](CC(C)C)N(C)C(=O)C[C@@H](C(=O)N2CCOCC2)N(C)C(=O)[C@H](C2CCCC2)N(C)C(=O)C(C)(C)NC(=O)[C@@H]2CCCN2C(=O)[C@H](CCc2cc(F)c(C(F)(F)F)c(F)c2)NC(=O)CN(C)C(=O)[C@H](Cc2ccc(C(F)(F)F)cc2)N2CCCCC[C@@H](C2=O)N(C)C(=O)CN(C)C1=O [PP0503]	4400			A (a compound having 10 or more and less than 20 is denoted as A)	B (a compound having 3 or more and less than 10 is denoted as B)			
CCO[C@@H]1C[C@H]2C(=O)NC3(CC(C)(C)C3)C(=O)N(C)[C@@H](C(CC)CC)C(=O)N(C)[C@H](C(=O)N3CCCC3)CC(=O)N(C)[C@@H](C)C(=O)N[C@@H]([C@@H](C)CC)C(=O)N(C)CC(=O)N(C)[C@H]3C/C=C\CCN(C3=O)[C@@H](Cc3ccc(C)cc3)C(=O)N(C)CC(=O)N[C@@H](CCc3cc(F)c(C(F)(F)F)c(F)c3)C(=O)N2C1 [PP2145]		A (a compound having 10 or more and less than 20 is denoted as A)	A (a compound having 10 or more and less than 20 is denoted as A)			390		
CC[C@H](C)[C@@H]1NC(=O)[C@H](CC(C)C)N(C)C(=O)C[C@@H](C(=O)N2CCOCC2)N(C)C(=O)[C@H](C2CCCC2)N(C)C(=O)C2(CCCC2)NC(=O)[C@@H]2CCCN2C(=O)[C@H](CCc2ccc(C(F)(F)F)c(Cl)c2)NC(=O)CN(C)C(=O)[C@H](Cc2ccc(OC(F)(F)F)cc2)N2CCCCC[C@@H](C2=O)N(C)C(=O)CN(C)C1=O [PP0615]	6200			B (a compound having 3 or more and less than 10 is denoted as B)	B (a compound having 3 or more and less than 10 is denoted as B)			
CC[C@H](C)[C@@H]1NC(=O)[C@H](CC(C)C)N(C)C(=O)C[C@@H](C(=O)N2CCOCC2)N(C)C(=O)[C@H](C2CCCC2)N(C)C(=O)C2(CCCC2)NC(=O)[C@@H]2CCCN2C(=O)[C@H](CCc2ccc(C(F)(F)F)c(Cl)c2)NC(=O)CN(C)C(=O)[C@H](Cc2ccc(F)cc2)N(C)C(=O)[C@@H]2CCN2C(=O)[C@H](C)N(C)C1=O [PP0217] ([NMeL]I[NMeA][Aze][NMePhe(4-F)][Sar][hPhe(3-Cl-4-CF3)]P[Ac5c][NMeGly(cPent)][NMeD]-Morpholide; lactam N-11)	180	C (A compound having a KD ratio of 0.1 or more and less than 3 is denoted as C)	C (A compound having a KD ratio of 0.1 or more and less than 3 is denoted as C)					
CCO[C@@H]1C[C@H]2C(=O)NC3(CC(C)(C)C3)C(=O)N(C)[C@@H](C3CCCC3)C(=O)N(C)[C@H](C(=O)N(C)C)CC(=O)N(C)[C@H]3CCCCCCc4ccc(cc4)C[C@@H](C(=O)N(C)CC(=O)N[C@@H](CCc4ccc(Cl)c(Cl)c4)C(=O)N2C1)N1CC/C=C\C[C@@H](C1=O)N(C)C(=O)CN(C)C(=O)[C@H]([C@@H](C)CC)NC3=O [PP3071]		A (a compound having 10 or more and less than 20 is denoted as A)	B (a compound having 3 or more and less than 10 is denoted as B)			120		
C#CC[C@H]1C(=O)N[C@@H]([C@@H](C)CC)C(=O)N(C)CC(=O)N(C)[C@H]2C/C=C\CCN(C2=O)[C@@H](Cc2ccc(C(F)(F)F)cc2)C(=O)N(C)CC(=O)N[C@@H](CCc2cc(F)c(C(F)(F)F)c(F)c2)C(=O)N2C[C@@H](C)C[C@H]2C(=O)NC2(CC(C)(C)C2)C(=O)N(C)[C@@H](C2CCCC2)C(=O)N(C)[C@H](C(=O)N(C)CC)CC(=O)N1C [PP2075]		A (a compound having 10 or more and less than 20 is denoted as A)	A (a compound having 10 or more and less than 20 is denoted as A)			220		
CCC[C@H]1C(=O)N[C@@H]([C@@H](C)CC)C(=O)N(C)CC(=O)N(C)[C@H]2C/C=C\CCN(C2=O)[C@@H](Cc2ccc(C(F)(F)F)cc2)C(=O)N(C)CC(=O)N[C@@H](CCc2cc(Cl)c3sccc3c2)C(=O)N2C[C@H](OCC)C[C@H]2C(=O)NC2(CC(C)(C)C2)C(=O)N(C)[C@@H](C(CC)CC)C(=O)N(C)[C@H](C(=O)N(C)C)CC(=O)N1C [PP2888]	390						AA (a compound having 20 or more is denoted as AA)	A (a compound having 10 or more and less than 20 is denoted as A)
CC[C@H](C)[C@@H]1NC(=O)[C@H](CC)N(C)C(=O)C[C@@H](C(=O)N(C)C)N(C)C(=O)[C@H](C2CCCC2)N(C)C(=O)C2(CCC2)NC(=O)[C@@H]2C[C@@H](N3CCC(F)(F)CC3)CN2C(=O)[C@H](CCc2cc(F)c(C(F)(F)F)c(F)c2)NC(=O)CN(C)C(=O)[C@H](Cc2ccc(C(F)(F)F)cc2)N2CCCC[C@@H](C2=O)N(C)C(=O)CN(C)C1=O [PP0656]	39			C (A compound having a KD ratio of 0.1 or more and less than 3 is denoted as C)	C (A compound having a KD ratio of 0.1 or more and less than 3 is denoted as C)			
CCCN1C(=O)[C@@H]2CCN2C(=O)CN(C)C(=O)[C@H]([C@@H](C)CC)NC(=O)[C@H](CC(C)C)N(C)C(=O)C[C@@H](C(=O)N2CCOCC2)NC(=O)[C@H](C2CCCC2)N(C)C(=O)C2(CCC2)NC(=O)[C@@H]2CC(F)(F)CN2C(=O)[C@H](CCc2ccc(C(F)(F)F)c(Cl)c2)NC(=O)CN(C)C(=O)[C@@H]1Cc1ccc(C(F)(F)F)cc1 [PP0352] ([NMeL]I[Sar][Aze][NPrPhe(4-CF3)][Sar][hPhe(3-Cl-4-CF3)][Pro(4,4-F2)][Ac4c][NMeGly(cPent)]D-Morpholide; lactam N-11)	820	C (A compound having a KD ratio of 0.1 or more and less than 3 is denoted as C)	B (a compound having 3 or more and less than 10 is denoted as B)					
CCO[C@@H]1C[C@H]2C(=O)NC3(CCC3)C(=O)N(C)[C@@H](C3CCCC3)C(=O)N(C)[C@H](C(=O)N(C)C)CC(=O)N(C)[C@@H](CC)C(=O)N[C@@H]([C@@H](C)CC)C(=O)N(C)CC(=O)N(C)[C@H]3CCCCCN(C3=O)[C@@H](Cc3ccc(F)cc3OC)C(=O)N(C)CC(=O)N[C@@H](CCc3cc(F)c(C(F)(F)F)c(F)c3)C(=O)N2C1 [PP0914]		B (a compound having 3 or more and less than 10 is denoted as B)	B (a compound having 3 or more and less than 10 is denoted as B)			430		

— patent publication US20240158446A1, “CYCLIC COMPOUND HAVING SELECTIVE INHIBITORY ACTION ON KRAS OVER HRAS AND NRAS” (CHUGAI SEIYAKU KABUSHIKI KAISHA, priority 2021, published 2024)
